As usually defined, the Kd is the equilibrium constant for the complex coming apart. High values mean weaker binding, low ones tighter binding.

This is an account of results in patent publication EP4212633A1 (priority 2022, dated 2023).

For one data set, the system named is SARS-CoV-2. As to conditions: Wang et al., 2020, Zhang et al.; cited from earlier work.
In data set [1] the test system is pseudoknot RNA. Put plainly: 1H,15N-HSQC NMR experiments (chemical shift perturbation, binding site mapping). Further details: species or system SARS-CoV-2.
In data set [2] the test system is pseudoknot RNA. Put plainly: inline probing experiments. The class given is binding, SARS-CoV-2.
The target in the next data set is SARS-CoV-2 pseudoknot. Put plainly: ligand observed fluorescence titrations (binding to the pseudoknot). Particulars: for Kd: binding to the pseudoknot structure, Figure 3.
The conditions of data set [3]: at higher concentrations; Borba et al., 2020; cited from earlier work.
The subject of the next data set is COVID-19. As to conditions: Cao et al., 2020; cited from earlier work.

In the case of `CC(C)(C)OC(=O)Nc1cccn([C@@H](CC2CC2)C(=O)N[C@@H](C[C@@H]2CCNC2=O)C(=O)C(=O)NCc2ccccc2)c1=O` [α-ketoamide-Inhibitor 13b], the antiviral activity result with SARS-CoV-2 is listed as “low micromolar range”. On to `NC(=O)c1ncn([C@@H]2O[C@H](CO)[C@@H](O)[C@H]2O)n1` [Ribavirin], for which, in the data set with SARS-CoV-2, the antiviral activity entry is “two- or three-digit micromolar range”. On to `COc1ccc(-c2cc(-c3ccncc3)nc(N3C[C@H](N)C[C@H](N)C3)n2)cc1` [D01+DAP, (3R,5S)-1-(4-(4-methoxyphenyl)-6-(pyridin-4-yl)pyrimidin-2-yl)piperidine-3,5-diamine], for which the “binding site from chemical shift perturbation and decreasing signal intensity” value in the data set on pseudoknot RNA [1] (addition of ligand to pseudoknot RNA, Figure 4A) was “confirmed one of the binding hot spots (HS2) as a binding site”. Further, the “interaction in inline probing” value in the data set on pseudoknot RNA [2] (Figure 4B) was “interaction of D01+DAP and the pseudoknot RNA in the predicted HS1 and the loop region (L2)”. At SARS-CoV-2 pseudoknot, this molecule displayed a Kd of 0.3 µM. For the same molecule, the “binding affinity to the SARS-CoV-2 pseudoknot (ranking among evaluated derivatives)” value with SARS-CoV-2 pseudoknot (ligand observed fluorescence titrations, Figures 3 and 14) was “highest binding affinity”. Regarding `CCN(CC)CCCC(C)Nc1ccnc2cc(Cl)ccc12` (stereo not drawn) [chloroquine], the side-effects result in data set [3] is “heart arrhythmia”. Consider `Cc1cccc(C)c1OCC(=O)N[C@@H](Cc1ccccc1)[C@@H](O)C[C@H](Cc1ccccc1)NC(=O)[C@H](C(C)C)N1CCCNC1=O` [lopinavir], for which the “effect in clinical tests” value in the data set on COVID-19 is “no effect”. As to `NC(=O)c1nc(F)cnc1O` [favipavir], the antiviral activity entry in the data set with SARS-CoV-2 is recorded as “two- or three-digit micromolar range”. Turning to `Cc1ccc(C)n1CCC(=O)Nc1ccc2nc[nH]c(=O)c2c1` [D05, 3-(2,5-dimethyl-1H-pyrrol-1-yl)-N-(4-oxo-3,4-dihydroquinazolin-6-yl)propanamide], the “interactions with the RNA in NMR experiments” value with pseudoknot RNA [1] is on record as “showed interactions with the RNA”. In addition, the “interactions with the RNA in in-line probing experiments” value in the data set with pseudoknot RNA [2] is on record as “showed interactions with the RNA”. For the same molecule, on SARS-CoV-2 pseudoknot, the affinity, expressed as Kd, was 140 µM.
